According to patent EP1206941A1, “ACTIVITY PO[…] CHEMOTHERAPEUTICS, ANTICANCER COMPOSITIONS AND METHOD FOR POTENTIATING THE ACTIVITY OF CHEMOTHERAPEUTICS” (HISAMITSU PHARMACEUTICAL CO. INC., priority 1999, dated 2001):
Read-outs that look alike come from different tables or passages of the source. *1 amine or outer side, *2 acyl side, *3 side chain or, on linkers, in order; H or OH if unused. Where a SMILES comes first, the peptide text is derived from it. Bridges are numbered along the chain shown (N, C = ends). Roman numbers before positions name the chains, in order. [ ]: non-standard residue; d: D form. Actinocin(9to1) = Cc1c2oc3c(C)ccc(C(=O)[*:1])c3nc-2c(C(=O)[*:2])c(N)c1=O; NMeV = CN[C@H](C(=O)O)C(C)C; Sar = CNCC(=O)O

Tested on: Murine melanoma B16 · BL6 cells
Experiment: Assay for apoptosis-inducing activity (TNF bioassay, crystal violet staining)
Type: cell-based
Conditions: for potentiation of apoptosis-inducing activity: ED50 alone versus ED50 in the presence of peptide (SEQ ID NO:2) 50 µg/ml; for EC50: Mus musculus, B16-BL6, 19 h, 19 hours, Probit method, read-out: ED50 (apoptosis-inducing activity)
Experimental: The potentiating effects on the apoptosis-inducing activity of chemotherapeutic agents were evaluated based on whether or not the apoptosis-inducing activity of anticancer agents of the apoptosis-inducing type would be affected by the combined use of the aforementioned synthetic peptide.
Specifically, the apoptosis-inducing activity of anticancer agents of three kinds of apoptosis-inducing type agents was compared between the presence of the peptide and the absence of the peptide. Determination of the apoptosis-inducing activity was carried out according to TNF bioassay (K. Hirano et al., J. Biochem., 105, 120, 1989). The details are provided below.
A 96-well was coated with human plasma fibronectin at a concentration of 5 µg/ml (prepared according to the method of Fukai et al., J. Biol. Chem., 266, 8807, 1991) and was subjected to blocking with bovine serum albumin (Sigma), after which it was suspended in a serum-free culture: the culture was a mixture of Dulbeccos Modified Eagle Medium and Ham F12 medium at a volume ratio of 1:1 and will be referred to as DMEM/Ham medium hereafter (Nissui Pharmaceutical Co. Ltd.). Murine melanoma B16 · BL6 cells were inoculated onto the plate at 2x10^4 cells/well. After cell adhesion and distention were confirmed by cultivating the cells at 37 °C and under 5% CO2 atmosphere for 2 hours, the culture supernatant was removed and a mixed solution comprising a chemotherapeutic agent and the peptide was added thereto. Cultivation was conducted for 19 hours. The peptide was prepared to give a final concentration of 50 µg/ml, and the chemotherapeutic agents were dissolved in DMEM/Ham medium at a variety of concentrations. As controls, only the peptide and only the chemotherapeutic agent at the same concentrations as those described were added. Cultivation was conducted for 19 hours. In Example 9 doxorubicin (abbreviated as DOX) was used; in Example 10 VCR was used; and in Example 11 AcD was used. DOX was also purchased from Sigma. After cultivation, the above mixed solution was removed and exchanged with a DMEM/HaM medium containing 10% bovine fetal serum (URH Biosciences) for further cultivation overnight. After fixing with 5% formaldehyde (Wako Pure Chemical Industries Ltd.), the cells having undergone apoptosis were removed through washing and the cells adhered to the plate were stained with a 0.5% crystal violet solution. Excessive dye was washed out with water. After lyzing the cells with 1% SDS and extracting the dye, absorbance at a wavelength of 595 nm was measured with a microplate reader (Spectra Rainbow Thermo; Wako Pure Chemical Industries Ltd.).

[1] = chemotherapeutic agent used alone
[2] = in the presence of peptide (SEQ ID NO:2) 50 µg/ml

SMILES	potentiation of apoptosis-inducing activity	EC50 [1]	EC50 [2]
CC[C@]1(O)C[C@H]2CN(CCc3c([nH]c4ccccc34)[C@@](C(=O)OC)(c3cc4c(cc3OC)N(C=O)[C@H]3[C@@](O)(C(=O)OC)[C@H](OC(C)=O)[C@]5(CC)C=CCN6CC[C@]43[C@@H]65)C2)C1 [VCR, vincristin]	~27,000 fold	111 µg/mL	0.0036 µg/mL
COc1cccc2c1C(=O)c1c(O)c3c(c(O)c1C2=O)C[C@@](O)(C(=O)CO)C[C@@H]3O[C@H]1C[C@H](N)[C@H](O)[C@H](C)O1 [DOX, doxorubicin]	~7.6 fold	0.293 µg/mL	0.039 µg/mL
Cc1c2oc3c(C)ccc(C(=O)N[C@@H]4C(=O)N[C@H](C(C)C)C(=O)N5CCC[C@H]5C(=O)N(C)CC(=O)N(C)[C@@H](C(C)C)C(=O)O[C@@H]4C)c3nc-2c(C(=O)N[C@@H]2C(=O)N[C@H](C(C)C)C(=O)N3CCC[C@H]3C(=O)N(C)CC(=O)N(C)[C@@H](C(C)C)C(=O)O[C@@H]2C)c(N)c1=O [AcD, actinomycin D] (I: T[dV]P[Sar][NMeV] / II: T[dV]P[Sar][NMeV]; ester I:1-I:C, II:1-II:C; linker I:N-II:N via Actinocin(9to1))	~40,000 fold	763 nM	0.0145 nM
